Results as given in patent US20100209537A1, “Metal complexes with anticancer activity” (priority 2009, published 2010).

What was measured:
[1] = Stability at room temperature; assay type: physicochemical
[2] = tested on: ovarian cancer cell line A2780; assay: MTT assay, ovarian cancer cell line A2780; assay type: cell-based, human; conditions: n = 3, A2780
Method: MTT [3-(4,5-dimethylthiazol-2yl)-2,5-diphenyltetrazolium bromide] method:
MTT is used to measure the metabolic activity of viable cells. The assay is non-radioactive and can be performed entirely in a micro titer plate (MTP). It is suitable for measuring cell proliferation, cell viability or cytotoxicity. The reaction produces water-insoluble formazan salt that must be solubilized. Procedure involves culturing the cells in a 96-well micro titer plate, and then incubating them with MTT solution for approximately 2 hours. During incubation period, viable cells convert MTT to a water-insoluble formazan dye. The formazan dye in the MTP is solubilized and quantified with an ELISA plate reader. The absorbance directly correlates with the cell number. This can be applicable for adherent cells cultured in MTP.
Compounds were tested at concentrations of 3 and 30 μg/ml by MTT assay using the ovarian cancer cell line A2780.

[3] = Solubility in water and organic solvents; assay type: physicochemical

Oc1ccccc1C=NNc1nc2ccccc2nc1Cl [RM2, 2-hydroxybenzaldehyde-1-(3-chloro-2-quinoxalinyl) hydrazone]
stability at room temperature [1]: stable
Percent surviving cells of DMSO control (Mean) ([2]; 3 μg/ml): 0.4%
Percent surviving cells of DMSO control (Mean) ([2]; 30 μg/ml): 0.4%
solubility in dimethylformamide and dimethylsulphoxide [3]: fairly soluble
solubility in methanol and acetone [3]: very slightly soluble
solubility in water [3]: insoluble

COc1cccc(C=NNc2nc3ccccc3nc2Cl)c1O [RM5, 2-Hydroxy-3-methoxybenzaldehyde-1-(3-chloro-2-quinoxalinyl)-hydrazone]
stability at room temperature [1]: stable
Percent surviving cells of DMSO control (Mean) ([2]; 3 μg/ml): 0.6%
Percent surviving cells of DMSO control (Mean) ([2]; 30 μg/ml): 0.2%
solubility in dimethylformamide and dimethylsulphoxide [3]: fairly soluble
solubility in methanol and acetone [3]: very slightly soluble
solubility in water [3]: insoluble

Oc1ccc2ccccc2c1C=NNc1nc2ccccc2nc1Cl [RM7, 2-hydroxy-1-naphthaldehyde-1-(3-chloro-2-quinoxalinyl)hydrazone]
stability at room temperature [1]: stable
Percent surviving cells of DMSO control (Mean) ([2]; 3 μg/ml): 6.6%
Percent surviving cells of DMSO control (Mean) ([2]; 30 μg/ml): 0.9%
solubility in dimethylformamide and dimethylsulphoxide [3]: fairly soluble
solubility in methanol and acetone [3]: very slightly soluble
solubility in water [3]: insoluble

Oc1ccc2ccccc2c1C=NNc1nc2ccccc2nc1Cl [RM8, 2-hydroxy-1-naphthaldehyde-1-(3-chloro-2-quinoxalinyl)hydrazone]
stability at room temperature [1]: stable
Percent surviving cells of DMSO control (Mean) ([2]; 3 μg/ml): 0.3%
Percent surviving cells of DMSO control (Mean) ([2]; 30 μg/ml): 0.1%
solubility in dimethylformamide and dimethylsulphoxide [3]: fairly soluble
solubility in methanol and acetone [3]: very slightly soluble
solubility in water [3]: insoluble

Clc1nc2ccccc2nc1NN=Cc1ccccn1 [RM10, 2-pyridinecarbaldehyde-2-(3-chloro-2-quinoxalinyl)hydrazone]
stability at room temperature [1]: stable
Percent surviving cells of DMSO control (Mean) ([2]; 3 μg/ml): 4.6%
Percent surviving cells of DMSO control (Mean) ([2]; 30 μg/ml): 1%
solubility in dimethylformamide and dimethylsulphoxide [3]: fairly soluble
solubility in methanol and acetone [3]: very slightly soluble
solubility in water [3]: insoluble

Clc1nc2ccccc2nc1NN=Cc1ccccn1 [RM11, 2-pyridinecarbaldehyde-2-(3-chloro-2-quinoxalinyl)hydrazone]
stability at room temperature [1]: stable
Percent surviving cells of DMSO control (Mean) ([2]; 3 μg/ml): 0.4%
Percent surviving cells of DMSO control (Mean) ([2]; 30 μg/ml): 0.7%
solubility in dimethylformamide and dimethylsulphoxide [3]: fairly soluble
solubility in methanol and acetone [3]: very slightly soluble
solubility in water [3]: insoluble

Clc1nc2ccccc2nc1NN=Cc1ccco1 [RM14, 2-furaldehyde-2-(3-chloro-2-quinoxalinyl)hydrazone]
stability at room temperature [1]: stable
Percent surviving cells of DMSO control (Mean) ([2]; 3 μg/ml): 13.2%
Percent surviving cells of DMSO control (Mean) ([2]; 30 μg/ml): 0.7%
solubility in dimethylformamide and dimethylsulphoxide [3]: fairly soluble
solubility in methanol and acetone [3]: very slightly soluble
solubility in water [3]: insoluble
